Measured values reported in patent US8361970B2, “Growth factor binding molecules” (University of South Florida, priority 2000, dated 2013).
Several values for one entry are separate records, joined by “and”; a condition that tells them apart may be missing. Equal values may be shown once. Read-outs that look alike come from different tables or passages of the source.

Columns and labels:
[1] = test system: aFGF-stimulated MAP kinase activation of p42 and p44; assay: Inhibition of aFGF stimulation of p42/p44 MAP kinase in NIH 3T3 cells; format: cell-based
Method: (§1) In other experiments, starved NIH 3T3 cells (PDGF-AA, PDGF-BB, aFGF, bFGF), NIH 3T3 cells overexpressing EGFR. IGF-1R or Flk-1 and the human breast carcinoma SkBr3 that overexpresses ErbB2 (HRGβ) are pretreated with GFB-111 (100 μM) for 5 min before 10 min stimulation with the indicated growth factors at the concentrations shown above and aFGF (10 ng/ml), bFGF (50 ng/ml), IGF-1 (50 ng/ml) and HRGβ (10 ng/ml). Cell lysates are then immunoblotted with anti-phospho Erk1/Erk2 as described above.
The ability of growth factor binding agents in the library of growth factor binding agents to block an aFGF signal is measured by aFGF-stimulation of MAP kinase activation of p42 and p44 essentially as described above for VEGF. NIH 3T3 cells are used as the target cell. […] A preferred embodiment of the invention is a compound that binds to acidic fibroblast growth factor, of the general structure III, in which R is n-butyl, n-propyl, or benzyl, and X1, X2, X3, and X4 optionally comprise covalently attached cyclic peptide loops of the general structure II, wherein R1, R2, R3, and R4 are each amino acid side chains that define a tetrapeptide sequence, wherein said tetrapeptide is covalently attached at the amino and carboxy termini of said tetrapeptide to a 3-aminomethyl-5-aminobenzamide linking group, and wherein said tetrapeptide sequence is as given, for example, in Table 5.

PDGF-BB = molecular target: T1, PDGF-BB (Homo sapiens, UniProt P01127); assay: Inhibition of [125I]-PDGF-BB binding to its receptor on NIH 3T3 cells; conditions: FIG. 2C
T1 construct: host or cells: NIH 3T3 cells carry the receptor
Method: NIH 3T3 (PDGF) or NIH 3T3 cells overexpressing either EGFR (EGF), IGFR (IGF) or Flk-1 (VEGF), are incubated with [^125I]-PDGF, [^125I]-EGF, [^125I]-IGF or [^125I]-VEGF, respectively (50,000 cpm per well) and increasing concentrations of GFB-111 or GFB-116. Cells are incubated at 4° C. for 1-3 h. After discarding media, the cells are washed 3 times with PBS and three times with Tris 25 mM pH 8.0, 1% T-X-100, 10% glycerol, 1% SDS. Lysates plus wash are counted. Excess of cold growth factors is used to obtain non-specific binding levels.
Whether GFB 111 can block [^125I]-PDGF-BB specific binding in NIH 3T3 cells is determined by pre-treatment of the PDGF-BB with increasing concentrations of GFB-111. FIG. 2C illustrates that in the absence of GFB-111, [^125I]-PDGF-BB is bound by NIH3T3 cells. However, pre-treatment with increasing concentrations of GFB-111, results in a concentration-dependent decrease in PDGF-BB binding.

[2] = test system: IGF-1 stimulated MAP kinase activation; assay: Inhibition of IGF-1 stimulated MAP kinase (p42/p44) activation in IGFR/3T3 cells; format: cell-based
[3] = test system: VEGF-stimulated MAP kinase activation; assay: Inhibition of VEGF-stimulated MAP kinase (p42/p44, Erk2/Erk1) activation in Flk-1/3T3 cells; format: cell-based; conditions: for IC50: Flk-1/3T3, VEGF stimulated
Method: (§2) Starved NIII 3T3 cells (PDGF-BB and PDGF-AA), NIH 3T3 cells overexpressing either EGFR (EGF) or Flk-1 (VEGF) are pre-treated with the indicated concentrations of GFB-111 for 5 minutes before 10 minutes of stimulation with PDGF-BB (10 ng/ml), PDGF-AA (10 ng/ml), EGF (100 ng/ml) and VEGF (50 ng/ml). Cell lysates are run on SDS-PAGE gels, then transferred to nitrocellulose and Western blotted with anti-phosphotyrosine (4G 10) or anti-phosphorylated Erk1/Erk2 (New England Biolabs).
as §1
(§3) In order to identify molecules that would bind vascular endothelial growth factor (VEGF), Flk-1/3T3 cell-based assay is used that relies on VEGF-stimulation of its receptor, Flk-1, tyrosine phosphorylation and subsequent MAP-kinase activation. The assay used herein identical to that used for PDGF, except that NIH 3T3 cells that overexpress Flk-1 are used. GFB-116, which has four identical loops with the sequence GKGK (SEQ ID NO. 10) is shown to be very potent and selective toward blocking the ability of VEGF to stimulate Flk-1 tyrosine phosphorylation and subsequent MAP-kinase activation as measured by phospho erk-1 and erk-2 also referred to in the Table as p42 and p44 (Table 4A). A preferred embodiment of the invention is a compound that binds to a vascular endothelial growth factor, of the general structure III (above) in which R is n-butyl, n-propyl, or benzyl, and X comprise covalently attached identical cyclic peptide loops wherein R1, R2, R3, and R4 are each amino acid side chains, as broadly defined above, that define a tetrapeptide sequence, wherein said tetrapeptide is covalently attached at the amino and carboxy termini of said tetrapeptide to 3-aminomethyl-5-aminobenzamide linking group, and wherein said tetrapeptide sequence is GKGK (SEQ ID NO. 10), GDGY (SEQ ID NO. 6), or functionally related derivatives thereof.

[4] = test system: VEGF-stimulated Flk-1 tyrosine phosphorylation; assay: Inhibition of VEGF-stimulated Flk-1 tyrosine phosphorylation in Flk-1/3T3 cells; format: cell-based
Method: as §2, §3

[5] = test system: human lung adenocarcinoma A-549; assay: Antitumor efficacy, A-549 xenograft in nude mice; format: in vivo; conditions: for Inhibition of A-549 tumor growth in nude mice: 50 mg per kg per day
[6] = concentrations as high as 100 μM
[7] = 100 μM, IGFR/3T3, IGF-1 stimulated
[8] = read-out: (IC50) Inhibition p42
[9] = read-out: (IC50) Inhibition p44
[10] = Flk-1/3T3, VEGF stimulated, read-out: (IC50) Inhibition Flk-1-Y-P

T1 sequence (P01127 82-190 limits assumed): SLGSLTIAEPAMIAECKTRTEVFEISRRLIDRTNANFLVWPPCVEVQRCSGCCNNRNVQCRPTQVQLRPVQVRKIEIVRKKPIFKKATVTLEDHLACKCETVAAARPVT

Compound | aFGF-activation of Erk1/Erk2 [1, 6] | Block of PDGF-BB binding to its receptor (PDGF-BB) | % Inhibition at 100 μM p42 [2, 7] | % Inhibition at 100 μM p44 [2, 7] | IGF-1-activation of Erk1/Erk2 [2, 6] | IC50 [3, 8] | IC50 [3, 9] | IC50 [4, 10] | IC50 ([4]; read-out: IC50 VEGF-stimulated Flk-1 tyrosine phosphorylation and MAPK activation) | Inhibition of A-549 tumor growth in nude mice [5] | % Tumor growth inhibition ([5]; A-549, 50 mpk, day in parentheses in cell) | Block of aFGF-stimulation of MAP kinase activation of p42 and p44 ([1]; NIH 3T3) | Block of VEGF-activation of the MAPKinases Erk1 and Erk2 ([3]; FIG. 13)
CCCCOc1c2cc(C(=O)Nc3cc4cc(c3)C(=O)NCC(=O)N[C@@H](CC(=O)O)C(=O)NCC(=O)N[C@@H](Cc3ccc(O)cc3)C(=O)NC4)cc1Cc1cc(C(=O)Nc3cc4cc(c3)C(=O)NCC(=O)N[C@@H](CC(=O)O)C(=O)NCC(=O)N[C@@H](Cc3ccc(O)cc3)C(=O)NC4)cc(c1OCCCC)Cc1cc(C(=O)Nc3cc4cc(c3)C(=O)NCC(=O)N[C@@H](CC(=O)O)C(=O)NCC(=O)N[C@@H](Cc3ccc(O)cc3)C(=O)NC4)cc(c1OCCCC)Cc1cc(C(=O)Nc3cc4cc(c3)C(=O)NCC(=O)N[C@@H](CC(=O)O)C(=O)NCC(=O)N[C@@H](Cc3ccc(O)cc3)C(=O)NC4)cc(c1OCCCC)C2 [GFB-111] | minimally affected | blocked | −18.4% | 10.7% | minimally affected | 10 µM | 10 µM | 5 µM | 10 µM | effective | 62% (30) and 53% (31) and 64% (27) |  | 
GKGK [GFB-116] |  | not |  | 25.2% and 43.5% |  | 5 µM | 5 µM | 0.3 µM |  | inhibits the growth |  | very effective | block
